The test system of data set [1] is diamond back moth. The data set can be described thus: Test 4: Effect on Diamond Back Moth. Type of data set: in vivo. To be noted: Plutella. In short, it runs like this:
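Compound formulated as an emulsifiable concentrate, diluted in water to 100 or 20 ppm and sprayed at 3 ml per cup onto cabbage leaves holding 10 third-instar larvae. Mortality counted after 24 hours; mean of three cups.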

Data set [2] can be described thus: Test 9: Toxicity Test (acute oral toxicity, mice). The conditions noted are these: mouse, in vivo, po. Here is the method:
A predetermined amount of a solution or suspension of a test compound in corn oil was orally administered to male mice having a body weight of 19 to 23 g (0.2 ml per 10 g of the body weight). After 7 days, the number of killed mice was counted and the influences on the mice were examined.

In data set [3] the test system is resistant green rice leafhopper (collected at Nakagawara). The data set can be described thus: Test 3: Effect on Resistant Green Rice Leafhopper (collected at Nakagawara). Type of data set: in vivo, Nephotettix cincticeps Uhler (Green rice leafhopper). To be noted: Nephotettix cincticeps, read-out: Mortality (%), Green Rice Leafhopper Collected at Nakagawara. In short, it runs like this: (§1)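 Ten adult females per pot, either resistant (Nakagawara) or sensitive (Chigasaki), were caged on air-dried rice seedlings (2–3 leaves) sprayed at 3 ml/pot with 100 or 20 ppm of an emulsifiable concentrate dilution. Dead and living insects were counted after 24 hours; mortality is the mean of three pots.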

The test system of data set [4] is sensitive green rice leafhopper (collected at Chigasaki). The data set is described as follows: whole plant or invertebrate. The format is in vivo. To be noted: Nephotettix cincticeps, read-out: Mortality (%), Green Rice Leafhopper Collected at Chigasaki. Summed up:
as §1

The nature of data set [5]: Test 8: Fish Toxicity. Type of data set: in vivo. The conditions noted are these: carp, water; concentration at which 1/2 of the test fishes were killed within 48 hours; read-out: Fish Toxicity, TLm48. Here is the method:
A water tank having a width of 60 cm, a length of 30 cm and a height of 40 cm was filled with water, and 10 yearling carps having a body length of about 5 cm were set free in the tank and adapted to the environment in the tank. A test compound was applied so that the concentration in water was 10, 1 or 0.1 ppm. After 48 hours, the numbers of killed and living carps were counted and the influences on the fishes were examined.

Data set [6] relates to German cockroach. The data set can be described thus: Test 7: Effect on German Cockroach. The format is in vivo. The conditions noted are these: Blattella germanica. Summed up:
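Petri dish floors were treated with 50 or 10 mg/m2 of compound (diluted emulsifiable concentrate) and air-dried. Ten male adult German cockroaches per dish were held at 25° C. Agonized and dead insects were counted after 24 hours, averaging two dishes.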

For data set [7], the system named is green peach aphid. The data set is described as follows: Test 5: Effect on Green Peach Aphid. Type of data set: in vivo. The conditions noted are these: Myzus persicae; 100 ppm; mortality class; 24 hours; read-out: Insecticidal Activity. As to the method:
(§2) To a mixture of 20 parts of the compound of the present invention and 20 parts of Sorpol SM-200 (registered tradename for the product supplied by Toho Chemical Industrial Co., Ltd.) was added 60 parts of xylol, and the mixture was suffciently blended. The obtained emulsifiable concentrate was diluted at a predetermined concentration with distilled water, and the obtained dilution was used.
Seedlings (having 3 to 4 leaves) of an eggplant grown on a pot were inoculated with green peach aphids and the insects were allowed to grow. The number of the insects was counted. A chemical dilution having a concentration of 100 ppm, prepared in the same manner as described in Test 1, was applied with a spray gun at a rate of 10 ml per pot. Then, the pot was placed in a glass green house. After 24 hours, the number of living insects was counted and the mortality was calculated.
The test was made on three pots, and the average value was calculated. In Table 6, mark "A" indicates a mortality higher than 95%, mark "B" indicates a mortality of 80 to 95%, mark "C" indicates a mortality of 50 to 80%, and mark "D" indicates a mortality lower than 50%.

The subject of data set [8] is two-spotted spider mite. The data set is described as follows: Test 6: Effect on Two-Spotted Spider mite Adults. The format is in vivo. The conditions noted are these: Tetranychus urticae. As to the method:
as §2
A kidney bean leaf disc perforated with a cork borer (15 mm in diameter) was placed on water-impregnated absorbent cotton (2 cm×2 cm), and 10 adults of two-spotted spider mite were set free. A chemical dilution having a concentration of 100 ppm was applied with an applicator in an amount of 3 ml.
The leaf disc-placed absorbent cotton was placed in a thermostat chamber maintained at 25° C. After 24 hours, the number of killed adults was counted and the mortality was calculated. The test was made on three leaf discs and the average value was calculated.

The test system of data set [9] is tobacco cutworm. The data set is described as follows: Test 1: Effect on Tobacco Cutworm (leaf immersion), mortality after 24 hours. The format is in vivo. The conditions noted are these: second-instar larvae, 25° C. Summed up: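 Second-instar tobacco cutworm larvae were kept at 25 °C on air-dried sweet-potato leaves that had been immersed for 10 s in test dilutions of 100 or 20 ppm from an emulsifiable concentrate. Mortality was scored at 24 h as the mean of three cups.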

Data set [10] deals with tobacco cutworm. The data set can be described thus: Test 2: Tobacco Cutworm Larva Dipping Test, mortality after 24 hours. The format is in vivo. Summed up: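 Second- and fifth-instar larvae dipped 5 s in a water dilution of an emulsifiable concentrate at 100 or 20 ppm, blotted, then held on artificial diet at 25° C. Dead and living larvae counted after 24 hours; mortality averaged over three cups.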

The mark [11] stands for this setting: 20 ppm, third-instar larvae, 24 hours, read-out: Mortality (%).
Where [12] appears, read: 100 ppm, third-instar larvae, 24 hours, read-out: Mortality (%).
[13] abbreviates: 20 ppm, sensitive female adults, 24 hours.
The mark [14] stands for this setting: 100 ppm, sensitive female adults, 24 hours.
Setting [15] is: 10 mg/m^2, male adults, agonized and killed after 24 hours, read-out: Mortality (%).
Where [16] appears, read: 50 mg/m^2, male adults, agonized and killed after 24 hours, read-out: Mortality (%).
Where [17] appears, read: 100 ppm, adults, 24 hours, 25° C, read-out: Mortality (%).
Setting [18] is: 24 h, read-out: Motality (%), Fifth-Instar Larvae.
The mark [19] stands for this setting: 24 h, read-out: Motality (%), Second-Instar Larvae.

In general, LD50 refers to the dose at which mortality reaches 50%. A low value points to greater toxicity.

Where two headings read alike, the source gives them in different places. Bounds are passed on as bounds.

On to `CCC(C)(COCc1cccc(Oc2ccccc2)c1)c1ccc(Cl)c(Cl)c1` (centres unmarked) [Compound 52, 3-Phenoxybenzyl 2-(3,4-dichlorophenyl)-2-ethylpropyl ether], for which the mortality at 20 ppm in data set [1] (setting [11]), in data set [3] (24 h) and in data set [4] (setting [13]) was 90% each time. In addition, the mortality at 100 ppm is 100% in [1] (setting [12]), 100% in [3] (24 h), 100% in data set [4] (setting [14]) and greater than 95% in data set [7]. Besides, in data set [2], the LD50 at 168 h was greater than 500 mg/kg. The LC50 at 48 h in [5] is greater than 10 µg/mL. Further, the mortality at 10 mg/m2 in [6] (setting [15]) amounted to 90%. Moreover, the mortality at 50 mg/m2 in [6] (setting [16]) was 100%.
`C#CCOc1ccc(C(C)(C)COCc2cccc(Oc3ccccc3)c2)cc1` [Compound 98, 3-Phenoxybenzyl 2-(4-propargyloxyphenyl)-2-methylpropyl ether] returned an LD50 at 168 h in data set [2] greater than 500 mg/kg. In addition, the mortality at 100 ppm in data set [8] (setting [17]) was found to be 100%. Besides, in data set [9], the mortality at 20 ppm stood at 100% and the mortality at 100 ppm was 100%.
Turning to `CCOc1ccc(C(C)(C)COCc2cccc(Oc3ccccc3)c2)cc1` [Compound 55, 3-Phenoxybenzyl 2-(4-ethoxyphenyl)-2-methylpropyl ether], the mortality at 20 ppm in data set [10] (setting [18]), in [10] (setting [19]), in data set [1] (24 h), in data set [3] (24 h), in data set [4] (24 h) and in data set [9] was 100% in each case. The mortality at 100 ppm was 100% in data set [10] (setting [18]); 100% in data set [10] (setting [19]); 100% in [1] (24 h); 100% in data set [3] (24 h); 100% in data set [4] (24 h); greater than 95% in [7]. The compound further returned a mortality at 100 ppm in [9] of 100%. This compound yielded a 50% lethal dose (LD50) at 168 h in data set [2] greater than 500 mg/kg. In addition, the LC50 at 48 h in data set [5] was greater than 0.1 µg/mL. This compound also registered a mortality at 10 mg/m2 in data set [6] (24 h) of 100%. In data set [6] (24 h), this compound displayed a mortality at 50 mg/m2 of 100%.
`Cc1ccc(C(C)(C)COCc2cccc(Oc3ccccc3)c2)cc1Cl` [Compound 73]: the mortality at 20 ppm in data set [1] (setting [11]) was 90%; in data set [9], 100%. For the same compound, the mortality at 100 ppm in [1] (setting [12]) is 100%; in [7], greater than 95%; in [9], 100%. For the same compound, in data set [2], the LD50 at 168 h was greater than 500 mg/kg. For the same compound, the LC50 at 48 h in [5] is greater than 10 µg/mL. In addition, in data set [6] (setting [15]), the mortality at 10 mg/m2 worked out at 100%. The mortality at 50 mg/m2 in data set [6] (setting [16]) turned out to be 100%.
`CC(C)(COCc1cccc(Oc2ccccc2)c1)c1cc(Cl)cc(Cl)c1` [Compound 56, 3-Phenoxybenzyl 2-(3,5-dichlorophenyl)-2-methylpropyl ether] showed an LD50 at 168 h in data set [2] greater than 500 mg/kg. For the same compound, the mortality at 20 ppm in data set [3] (24 h) is 100%; in data set [4] (setting [13]), 90%. Further, the mortality at 100 ppm was 100% in [3] (24 h), 100% in data set [4] (setting [14]) and 80% in data set [8] (setting [17]).
Compound `CCOCc1ccc(C(C)(C)COCc2cccc(Oc3ccccc3)c2)cc1` [Compound 82, 3-Phenoxybenzyl 2-(4-ethoxymethylphenyl)-2-methylpropyl ether] displayed an LD50 at 168 h in data set [2] greater than 500 mg/kg. For the same compound, the values for the mortality at 20 ppm in data set [3] (24 h) and in data set [4] (setting [13]) were 100% and 80%, respectively. Moreover, the mortality at 100 ppm in data set [3] (24 h) turned out to be 100%; in data set [4] (setting [14]) it was 100%; in [8] (setting [17]), 90%.
Regarding `CCC(C)(COCc1cccc(Oc2ccc(Br)cc2)c1)c1ccc(F)cc1` (centres unmarked) [Compound 16, 3-(4-bromophenoxy)benzyl 2-(4-fluorophenyl)-2-ethylpropyl ether], in data set [2], the LD50 at 168 h is greater than 500 mg/kg. Also, the mortality at 20 ppm in data set [3] (24 h) is 100%; in data set [4] (setting [13]) it was 90%. For the same compound, the mortality at 100 ppm in data set [3] (24 h) is 100%; in data set [4] (setting [14]), 100%; in [8] (setting [17]) it was 90%.
On to `CC(C)(COCc1cccc(Cc2ccccc2)c1)c1ccc(Cl)cc1` [Compound 35, 3-Benzylbenzyl 2-(4-chlorophenyl)-2-methylpropyl ether], for which, in data set [2], the LD50 at 168 h was greater than 500 mg/kg. Moreover, the results for the mortality at 20 ppm in data set [3] (24 h) and in data set [4] (setting [13]) were 70% and 50%, respectively. In addition, the results for the mortality at 100 ppm in data set [3] (24 h), in [4] (setting [14]) and in data set [8] (setting [17]) were 100%, 100% and 85%, respectively. The LC50 at 48 h in data set [5] was greater than 10 µg/mL.
In data set [2], `CC(C)(COCc1cccc(Oc2cccc(Cl)c2)c1)c1ccc(OC(F)F)cc1` [Compound 25, 3-(3-Chlorophenoxy)benzyl 2-(4-difluoromethoxyphenyl)-2-methylpropyl ether] displayed an LD50 at 168 h greater than 500 mg/kg. Besides, the mortality at 20 ppm in data set [3] (24 h) and in data set [4] (setting [13]) was 100% throughout. Also, the mortality at 100 ppm in [3] (24 h) came out at 100%; in [4] (setting [14]) it was 100%; in data set [8] (setting [17]), 90%.
On to `CCOc1ccc(C(C)(C)COCc2cccc(Oc3ccccc3)c2)cc1C` [Compound 90, 3-Phenoxybenzyl 2-(4-ethoxy-3-methylphenyl)-2-methylpropyl ether], for which the mortality at 20 ppm in data set [10] (20 ppm, fifth-instar larvae, 24 hours, read-out: Motality (%), Fifth-Instar Larvae) amounted to 90%; in [10] (20 ppm, second-instar larvae, 24 hours, read-out: Motality (%), Second-Instar Larvae) it was 100%; in data set [1] (setting [11]) it was 100%; in data set [3] (24 h), 100%; in [4] (setting [13]), 100%; in [9], 100%. For the same compound, the mortality at 100 ppm worked out at 100% in data set [10] (100 ppm, fifth-instar larvae, 24 hours, read-out: Motality (%), Fifth-Instar Larvae); 100% in [10] (100 ppm, second-instar larvae, 24 hours, read-out: Motality (%), Second-Instar Larvae); 100% in data set [1] (setting [12]); 100% in [3] (24 h); 100% in data set [4] (setting [14]); 100% in [8] (setting [17]). Further, in data set [9], the mortality at 100 ppm is 100%. This compound yielded an LD50 at 168 h in data set [2] greater than 500 mg/kg. Moreover, the mortality at 10 mg/m2 in [6] (setting [15]) was 90%. In addition, in data set [6] (setting [16]), the mortality at 50 mg/m2 is 100%.
Turning to `CCOP(=S)(OCC)Oc1ccc(=O)n(-c2ccccc2)n1` [(d), O,O-diethyl-O-(3-oxo-2-phenyl-2H-pyridazin-6-yl)-phosphorothioate, reference compound], the mortality at 20 ppm in [3] (20 ppm, resistant female adults, 24 hours) turned out to be 10%; in data set [4] (24 h) it was 40%. Further, the mortality at 100 ppm worked out at 20% in data set [3] (100 ppm, resistant female adults, 24 hours); 90% in data set [4] (24 h); 40% in data set [8] (24 h). In [6] (24 h), this compound returned a mortality at 10 mg/m2 of 50%. The compound also came in with a mortality at 50 mg/m2 in data set [6] (24 h) of 100%.

The record behind these values is patent US4570005A, “Process for the preparation of 2-arylpropyl ether or thioether derivatives” (priority 1980, dated 1986).
